The values below come from US9248148B2, “Mono (iron hydroxypyrone) and combination (iron hydroxypyrone and GI inflammation inhibiting agents) compositions for anaemia or H. pylori infections” (Iron Therapeutics Holdings AG, priority 2008, dated 2016).

Molecules are shown by their SMILES.

For this series, the system named is anaemia due to blood loss. The experiment in a line: Patient 1: anaemia after surgical blood loss, treated while continuing Gaviscon (acid reducer). From the text: The patient had been taking Gaviscon™ which contains potassium bicarbonate as an acid reducer to reduce acid reflux. […] They continued to take Gaviscon™ but was also given ferrous sulphate tablets for their anaemia.

Consider `O=S(=O)([O-])[O-].[Fe+2]` [ferrous sulphate], for which, for the setting “patient 1, continuing Gaviscon (potassium bicarbonate)”, the correction of anaemia entry is given as “failed to correct their anaemia”. Also, the “tolerability / side effects” value (patient 1, continuing Gaviscon, maltol and ferrous gluconate at 45 mg/day) was “serious side effects of gastric intolerance and severe headaches”.
